Laboratory results taken from patent US4407818A, “Anti viral, anti bacterial and/or anti fungal composition containing metal oxyalkylate” (Bio-Systems Research, Inc., priority 1981, dated 1983).
Values joined by “and” are separate entries in the source; they are usually repeats but may differ in a detail not shown here. Equal entries are not always repeated. “Also recorded” adds a separate entry of the source.

Legend:
HSV-2 [1] = test: CPE trial on HSV-2 (Examples 15-16); type: cell-based, Herpes simplex virus type II
Polio 1 = type: cell-based; conditions: in words; CPE trial
Echo 5 = test: CPE trial on Echo 5 (Examples 12-14); type: cell-based; conditions: in words
Adenovirus type 4 = test: CPE trial on Adenovirus type 4 using KB cells (Example 17); type: cell-based
HSV-1 [2] = test: Plaque assay, HSV-1 (Examples 8-11); type: cell-based, Herpes simplex virus type I
HSV-2 [3] = test: Plaque assay, HSV-2 (Examples 5-7); type: cell-based, Herpes simplex virus type II
HSV-1 [4] = test: CPE trial on HSV-1 (Examples 15-16); type: cell-based, Herpes simplex virus type I; conditions: in words
HSV-2 [5] = test: Neutralization of viral cytopathogenic effect (CPE) on BGM cells, HSV-2 (Example 3); type: cell-based, Herpes simplex virus type II
Method: (§1) Evaluation of the compound is made using a simple neutralization of viral cytopathogenic effect (CPE) on Buffalo Green Monkey (BGM) cells using two tubes for each dilution of virus. […] In order to evaluate zinc oxyacetate, the compound (or the compound in equal weight admixture with lauryl alcohol) is incubated for 1 hour with the virus prior to making ten-fold serialdilutions and innoculating the BGM tubes. The amount of virus used is 0.1 ml. The amount of test material used is 0.1 ml of a solution containing 0.1% of Tween 80 and 0.1% of the test material.

[6] = test system: Herpes simplex virus type 1 (HSV-1); test: Neutralization of viral cytopathogenic effect (CPE) on BGM cells, HSV-1 (Example 3); type: cell-based
Method: as §1

Staphylococcus aureus [7] = test: Filter paper disc bacterial inhibition test on agar plates (Example 1); type: cell-based; conditions: .01% solution (as headed); for Clear Area, Average: average of plates 1-4; for Clear Area: single plate, overnight at 37° C., -- counted as zero in the average
Bread mold = test: Disc growth inhibition of bread mold on nutrient plate (Example 2); type: cell-based
Method: (§2) A stock (1%) solution is prepared by dissolving 0.1 gm of zinc ocyacetate in 10 ml of water. A 1/2 dilution (0.5% solution) is made by admixing 5 ml of the stock solution and 5 ml of water. A 1/4 dilution (0.25% solution) is made by admixing 5 ml of the 0.5% solution and 5 ml of water. A 1/10 dilution (0.1% solution) is made by admixing 1 ml of the stock (1%) solution and 9 ml of water. Fine filter paper discs of 1 cm diameter are placed in each of four clean petri dishes. In dish #1, 0.1 ml of the 1% solution is dropped onto each filter disc and allowed to air dry. The same is done in dish #2 except that the 0.5% solution is used. The same is done on dishes #3 and #4 except that the 0.25 and 0.1% solutions, respectively,are used. One ml of a previously prepared 1×10^-4 dilution of a broth bacterial culture (Staphylococcus aureus) is then spread evenly over the entire surface of four agar plates. At the 12 o'clock position on each of the agar plates, a disc from dish #1 (1% solution) is placed. Discs from dishes #2, #3 and #4 are similarly placed at the 3 o'clock, 6 o'clock, and 9 o'clock positions, respectively, of each of the four plates. Each disc is gently pressed to enure good contact with the agar surface. For comparison purposes, a further stock solution of zinc sulphate (1%) is made up and an identical series of tests made. Each plate is incubated overnight at 37° C. and the area of inhibition--the clear area around each disc--is measured. Bread mold is innoculated on a nutrient plate.

Staphylococcus aureus [8] = test: Filter paper disc bacterial inhibition test on agar plates (Example 1); type: cell-based; conditions: for Clear Area, Average: average of plates 1-4; for Clear Area: single plate, overnight at 37° C.
Method: as §2, with “measured.” for “measured. Bread mold is innoculated on a nutrient plate.”

Microsporum canis = test: Inhibition of molds, size of cleared area (Example 4); type: cell-based; conditions: 0.1 ml of a 1% solution containing 0.1% Tween 80
Method: (§3) Bread mold is innoculated on a nutrient plate.
(§4) In a test similar to that of Example 2, zinc oxyacetate is tested for inhibition of four bread molds. The amount of zinc oxyacetate is 0.1 ml of a 1% solution containing 0.1% Tween 80. The amount of mold is 0.1 ml.

Trichophyton rubrum = test: as above; type: cell-based; conditions: 0.1 ml of a 1% solution containing 0.1% Tween 80
Method: as §3, §4

Candida albicans = test: as above; type: cell-based; conditions: 0.1 ml of a 1% solution containing 0.1% Tween 80
Method: as §3, §4

[9] = test system: Trichophyton mentagrophytes; test: as above; type: cell-based; conditions: 0.1 ml of a 1% solution containing 0.1% Tween 80
Method: as §3, §4

[10] = Visible precipitate under sensitivity disc (Example 1); type: physicochemical; conditions: 1% and 0.50% concentration
Method: as §2, with “For comparison purposes, a further stock solution of zinc sulphate (1%) is made up and an identical series of tests made.” left out, “measured.” for “measured. Bread mold is innoculated on a nutrient plate.”

SMILES: CC(=O)[O-].CC(=O)[O-].CC(=O)[O-].CC(=O)[O-].CC(=O)[O-].CC(=O)[O-].[Mn+2].[Mn+2].[Mn+2].[Mn+2].[O-2] [Manganese compound, Magnanese oxyacetate]
- size of the BGM cells (HSV-2 [1]; 10^-1 dilution of HSV-2): increase in the size of the BGM cells
- inhibition of HSV-2 (HSV-2 [1]; 10^-1 dilution of HSV-2, BGM cells): inhibit the virus completely
- inhibition of HSV-2 (HSV-2 [1]; 10^-2 and 10^-3 dilution, one tube in each dilution, later typical syncytial formation): early inhibition of virus
- CPE result (titer column), HSV-2 (HSV-2 [1]; BGM cells, control 10^-2.5): Inhibition
- effectiveness against HSV-2 (HSV-2 [1]; in words, CPE trial): effective against HSV-2
- type of action against HSV-2 (viristatic / viricidal) (HSV-2 [1]; in words, CPE trial): apparent viristatic action
- effectiveness against Polio 1 (Polio 1): not effective
- effectiveness against Echo 5 (Echo 5): not effective
- titer, Adenovirus type 4 (Adenovirus type 4; in all cases): 10^-3
- effectiveness in inhibiting the CPE of Adenovirus type 4 (Adenovirus type 4; in words): neither the test compound nor Zn carrier are effective
- plaque assay result, HSV-1 (HSV-1 [2]; HSV-1 10^-2 (Example 8), 0% methylcellulose overlay, control TNC (too numerous to count)): 90
- plaque assay result, HSV-1 (HSV-1 [2]; HSV-1 10^-2 (Example 8), 1.5% methylcellulose overlay, control ND, Irr = irregular results, TNC = too numerous to count): Irr
- plaque assay result, HSV-1 (HSV-1 [2]; HSV-1 10^-2 (Example 8), 2% methylcellulose overlay, control ND, Irr = irregular results, TNC = too numerous to count): Irr
- plaque assay result, HSV-1 (HSV-1 [2]; HSV-1 10^-3 (Example 9), 0% methylcellulose overlay, control 34): 11
- plaque assay result, HSV-1 (HSV-1 [2]; HSV-1 10^-3 (Example 9), 1.5% methylcellulose overlay, control TNC): 45
- plaque assay result, HSV-1 (HSV-1 [2]; HSV-1 10^-3 (Example 9), 2% methylcellulose overlay, control 115): 46
- plaque assay result, HSV-1 (HSV-1 [2]; HSV-1 10^-4 (Example 10), 0% methylcellulose overlay, control 6): 4
- plaque assay result, HSV-1 (HSV-1 [2]; HSV-1 10^-4 (Example 10), 1.5% methylcellulose overlay, control 38): 5
- plaque assay result, HSV-1 (HSV-1 [2]; HSV-1 10^-4 (Example 10), 2% methylcellulose overlay, control 10): 5
- plaque assay result, HSV-1 (HSV-1 [2]; HSV-1 10^-5 (Example 11), 0% methylcellulose overlay, control 5): 0
- plaque assay result, HSV-1 (HSV-1 [2]; HSV-1 10^-5 (Example 11), 1.5% methylcellulose overlay, control 3): 0
- plaque assay result, HSV-1 (HSV-1 [2]; HSV-1 10^-5 (Example 11), 2% methylcellulose overlay, control 3): 0
- plaque assay result, HSV-2 (HSV-2 [3]; HSV-2 10^-1 (Example 5), control ND): Toxic
- plaque assay result, HSV-2 (HSV-2 [3]; HSV-2 10^-2 (Example 6), control 39): 4
- plaque assay result, HSV-2 (HSV-2 [3]; HSV-2 10^-3 (Example 7), control 5): 0
- inhibition of HSV-2 (plaque assay) (HSV-2 [3]; in words): less effective than the zinc composition; also recorded: both substances inhibited HSV-2
- solubility (in words) (Solubility in 2% FBS-MEM): readily soluble
- effectiveness against HSV-1 (HSV-1 [4]): probably not effective against HSV-1

SMILES: CC(=O)O.CC(=O)O.CC(=O)O.CC(=O)O.CC(=O)O.CC(=O)O.[O-2].[Zn+2].[Zn+2].[Zn+2].[Zn+2] [Zinc oxyacetate, zibnc, hexakis(acetato) oxotetra]
- Titer based on 4+(100%) CPE, HSV-2 (HSV-2 [5]; BGM cells, 1 hour preincubation with virus, 0.1% test material, 0.1% Tween 80, control 10^-2): 0
- effectiveness in inhibiting the virus (HSV-2 [5]; in words, HSV-2, BGM cells): effective in inhibiting the virus
- log inhibition, HSV-2 (HSV-2 [5]; titer reduction versus control): 2 log
- Titer based on 4+(100%) CPE, HSV-1 ([6]; BGM cells, 1 hour preincubation with virus, 0.1% test material, 0.1% Tween 80, control 10^-4): 10^-3
- effectiveness in inhibiting the virus ([6]; in words, HSV-1, BGM cells): effective in inhibiting the virus
- log inhibition, HSV-1 ([6]; titer reduction versus control): 1 log
- Clear Area, Average (Staphylococcus aureus [7]): 0.31 cm
- Clear Area (Staphylococcus aureus [7]): 1.25 cm
- growth inhibition of bread mold (Bread mold; 1% solution): good growth inhibition
- growth inhibition of bread mold (Bread mold; less concentrated solution): does not noticeably inhibit growth
- growth inhibition of bread mold (Bread mold; undiluted material): good growth inhibition
- Clear Area, Average (Staphylococcus aureus [8]; 1% solution): 1.82 cm
- Clear Area (Staphylococcus aureus [8]; 1% solution): 1.85 cm and 1.80 cm and 1.78 cm
- Clear Area, Average (Staphylococcus aureus [8]; .25% solution): 1.37 cm
- Clear Area (Staphylococcus aureus [8]; .25% solution): 1.32 cm and 1.35 cm and 1.40 cm and 1.42 cm
- Clear Area, Average (Staphylococcus aureus [8]; .5% solution): 1.64 cm
- Clear Area (Staphylococcus aureus [8]; .5% solution): 1.70 cm and 1.52 cm and 1.61 cm and 1.72 cm
- bacteriostatic qualities (Staphylococcus aureus [8]; in words, versus zinc sulphate): bacteriostatic qualities comparable to those of zinc sulphate
- Size of cleared area, Microsporum canis (Microsporum canis): 8 mm
- Size of cleared area, Trichophyton rubrum (Trichophyton rubrum): 5 mm
- Size of cleared area, Candida albicans (Candida albicans): 9 mm
- Size of cleared area, Trichophyton mentagrophytes [9]: 9 mm

SMILES: O=S(=O)([O-])[O-].[Zn+2] [Zinc sulphate, zinc sulphate, reference compound]
- visible precipitate under each sensitivity disc [10]: a visible precipitate formed under each sensitivity disc
- Clear Area, Average (Staphylococcus aureus [7]): 0.61 cm
- Clear Area (Staphylococcus aureus [7]): 1.22 cm and 1.21 cm
- Clear Area, Average (Staphylococcus aureus [8]; 1% solution): 1.66 cm
- Clear Area (Staphylococcus aureus [8]; 1% solution): 1.80 cm and 1.72 cm and 1.71 cm and 1.42 cm
- Clear Area, Average (Staphylococcus aureus [8]; .25% solution): 1.37 cm
- Clear Area (Staphylococcus aureus [8]; .25% solution): 1.40 cm and 1.39 cm and 1.31 cm
- Clear Area, Average (Staphylococcus aureus [8]; .5% solution): 1.44 cm
- Clear Area (Staphylococcus aureus [8]; .5% solution): 1.50 cm and 1.45 cm and 1.41 cm and 1.40 cm
